Patent publication US5962487A, “Antipicornaviral compounds and methods for their use and preparation” (Agouron Pharmaceuticals, Inc., priority 1997, dated 1999)

Legend:
[1] = biological target: T1, Rhinovirus 3C protease (RVP) serotype-14 (Human rhinovirus 14, UniProt P03303); test: Inhibition of Rhinovirus Protease, serotype 14 (FRET assay); type: biochemical; settings: for Ki / inhibition at 10 µM: RVP serotype-14; for Ki: 10 minute preincubation with 50 nM RVP prior to addition of substrate, read-out: INHIB (Ki); for kinact/KI: read-out: kobs/I; for inhibition at 10 µM: 10 μM compound, 10 minute preincubation with 50 nM RVP, read-out: INHIB (percent inhibition)
T1 construct: Recombinant Rhinovirus 3C proteases from serotypes 14, 16, 2 or 89 were prepared; made in house
T1 sequence (P03303 1538-1719): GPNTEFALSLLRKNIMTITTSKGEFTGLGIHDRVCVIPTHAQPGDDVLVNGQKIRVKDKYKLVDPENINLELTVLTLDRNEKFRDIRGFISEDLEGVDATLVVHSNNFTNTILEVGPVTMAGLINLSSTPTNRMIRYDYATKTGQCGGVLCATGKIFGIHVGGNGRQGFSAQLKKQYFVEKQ
Procedure: Stock solutions (50 mM, in DMSO) of various compounds were prepared; dilutions were in the same solvent. Recombinant Rhinovirus 3C proteases from serotypes 14, 16, 2 or 89 were prepared by the following standard chromatographic procedures: (1) ion exchange using Q Sepharose Fast Flow from Pharmacia; (2) affinity chromatography using Affi-Gel Blue from Biorad; and (3) sizing using Sephadex G-100 from Pharmacia. Assays contained 2% DMSO, 50 mM tris pH 7.6, 1 mM EDTA, a compound at the indicated concentrations, approximately 1 μM substrate, and 50-100 nM protease. For Ki determinations, the compound and the enzyme were preincubated for 10 minutes at 30° C. prior to addition of the substrate (substrate start). The kobs/I values were obtained from reactions initiated by addition of enzyme rather than substrate. RVP activity is measured in the fluorescence resonance energy transfer assay. The substrate was (N-terminal) DABCYL-(Gly-Arg-Ala-Val-Phe-Gln-Gly-Pro-Val-Gly)-EDANS. In the uncleaved peptide, the EDANS fluorescence was quenched by the proximal DABCYL moiety. When the peptide was cleaved, the quenching was relieved, and activity was measured as an increase in fluorescence signal.
In the above table, all data is for RVP serotype-14 unless otherwise noted in parentheses. All strains of human rhinovirus (HRV) were purchased from American Type Culture Collection (ATCC), except for serotype 14, which was produced from the infectious cDNA clone constructed and supplied to us by Dr. Roland Rueckert at the Institute for Molecular Virology, University of Wisconsin, Madison, Wis. The column designated INHIB represents the percent inhibition, with the concentration of the compound in μM indicated in parentheses, unless Ki was assigned as designated by (Ki), at 10 minute preincubation with 50 nM RVP prior to addition of substrate was used. The data in the column designated kobs/I was measured from progress curves in enzyme start experiments.

[2] = in vitro; type: cell-based; settings: human, hi-hela cells
Procedure: (§1) HI-HeLa cells were infected with HRV-14 (unless otherwise noted) at a multiplicity of infection (m.o.i.) of 0.13 (virus particles/cell) or mock-infected with medium only. Infected or mock-infected cells were resuspended at 8×10^5 cells per mL and incubated with appropriate concentrations of compounds of formulas I and II. Two days later, XTT/PMS was added to test plates, and the amount of formazan produced was quantified spectrophotometrically at 450/650 nm. The EC50 was calculated as the concentration of compound that increased the percentage of formazan production in compound-treated, virus-infected cells to 50% of that produced by compound-free mock-infected cells. The 50% cytotoxic dose (CC50) was calculated as the concentration of compound that decreased the percentage of formazan produced in compound-treated, mock-infected cells to 50% of that produced in compound-free, mock-infected cells. The therapeutic index (TI) was calculated by dividing the CC50 by the EC50.
(§2) All strains of human rhinovims (HRV) for use in this assay were purchased from American Type Culture Collection (ATCC), except for HRV serotype-14, which was produced from the infectious cDNA clone, constructed and supplied to us by Dr. Roland Rueckert at the Institute for Molecular Virology, University of Wisconsin, Madison, Wis. HRV stocks were propagated, and antiviral assays were performed in HI-HeLa (ATCC). Cells were grown in Minimal Essential Medium, available from Life Technologies, with 10% fetal bovine serum.

[3] = test system: HRV-14; test: Antirhinoviral HI-HeLa Cell Culture Assay (cell protection, XTT), HRV-14; type: cell-based, human rhinovirus; settings: for TI: CC50/EC50, HRV serotype-14, 2880 min; for EC50: Rhinovirus B, HRV14, 48 h, HRV serotype-14 infected HI-HeLa cells, XTT, two days
Procedure: In the Cell Protection Assay, the ability of compounds to protect cells against HRV infection was measured by the XTT dye reduction method. This method is described in O. S. Weislow, R. Kiser, D. L. Fine, J. Bader, R. H. Shoemaker, and M. R. Boyd, J. Natl. Cancer Inst. 1989, 81, 577-586, which document is entirely incorporated herein by reference.
as §1, §2
The compounds were tested against control compounds WIN 51711, WIN 52084, and WIN 54954, all obtained from Sterling-Winthrop Pharmaceuticals, and control compound Pirodavir, obtained from Janssen Pharmaceuticals. Antiviral data obtained for the test compounds are shown in Table 2 where all data are for HRV serotype-14 unless otherwise noted in parentheses.

| SMILES | Ki [1] [µM] | kinact/KI [1] [M⁻¹ s⁻¹] | CC50 at 48 h [2] [µM] | TI [3] | EC50 [3] [nM] | inhibition at 10 µM [1] [%] |
| --- | --- | --- | --- | --- | --- | --- |
| CCOC(=O)/C=C/[C@H](CCC(N)=O)NC(=O)[C@@H]1[C@@H](c2ccccc2)CCN1C(=O)[C@H](CC(C)C)NC(=O)OCc1ccccc1 [Compound 18, Ethyl-3-[CBZ-L-Leu-L-(3R-Phenyl)-Pro-L-Gln]-E-Propenoate] | 7 | 423 | 126 | 25 | 5000 | – |
| CN(C(=O)[C@H](CCc1ccccc1)NC(=O)SCc1ccccc1)[C@@H](Cc1ccccc1)C(=O)N[C@H](/C=C1\CCOC1=O)CCC(N)=O [Compound 10, 2-(Bezylthiocarbonyl-L-hPhe-L-N-Me-Phe-L-Gln)-E-(α-Vinyl-γ-Butyrolactone)] | 2 | 41800 | 56.2 | 31 | 1800 | – |
| CC(C)C[C@H](NC(=O)SC1CCCC1)C(=O)N(C)[C@@H](Cc1ccccc1)C(=O)N[C@H](/C=C/C(=O)OCc1ccccc1)CCC(N)=O [Compound 56] | – | 15400 | 20 | 13 | 1600 | – |
| CCOC(=O)/C(C)=C/[C@H](CCC(N)=O)NC(=O)[C@H](Cc1ccccc1)N(C)C(=O)[C@H](CSc1ccccc1)NC(=O)SC1CCCC1 [Compound 47] | – | 6500 | 18 | 14 | 1300 | – |
| CCOC(=O)C=CC(CCC(N)=O)NC(=O)C1CC(OC(C)(C)C)CN1C(=O)C(CC(C)C)NC(=O)OCc1ccccc1 (stereo not shown) [Compound 23] | 60 | 605 | 224 | 22 | 10000 | – |
| CCOC(=O)/C=C/C(CCC(N)=O)NC(=O)[C@@H]1CCc2ncc(N(C(=O)SC3CCCC3)C(=O)SC3CCCC3)c(=O)n21 (stereo partly shown) [Compound 50] | – | 14000 | > 100 | > 31 | 3200 | – |
| COCCOC(=O)/C=C/[C@H](CCC(N)=O)NC(=O)[C@H](Cc1ccccc1)N(C)C(=O)[C@H](CC(C)C)NC(=O)SC1CCCC1 [Compound 58] | – | 24300 | 63 | 113 | 560 | – |
| CCOC(=O)/C=C/[C@H](CCC(N)=O)NC(=O)[C@H](Cc1ccccc1)n1ccn(NC(=O)OCc2ccccc2)c1=O [Compound 33, Ethyl-3-(CBZ-amino-L-N-[(1,3-Dihydro-imidazol-2-one)-Phe]-L-Gln)-E-Propenoate] | – | 361 | > 320 | – | > 320000 | 86 |
| CCOC(=O)/C=C/[C@H](CCC(N)=O)NC(=O)[C@H](Cc1ccccc1)N(C)C(=O)[C@H](CC(C)C)NC(=O)SCC(C)C [Compound 44] | – | 12300 | 56.2 | 104 | 540 | – |
| CCOC(=O)/C=C/[C@H](CCC(N)=O)NC(=O)[C@H](Cc1ccccc1)N(C)C(=O)[C@H](CCc1ccccc1)NC(=O)SCc1ccccc1 [Compound 9, Ethyl-3-(Benzylthiocarbonyl-L-hPhe-L-N-Me-Phe-L-Gln)-E-Propenoate] | 4.4 | 57000 | 56.2 | 225 | 250 | – |
| CCSC(=O)N[C@@H](CC(C)C)C(=O)N(C)[C@@H](Cc1ccccc1)C(=O)N[C@H](/C=C/C(=O)N1CCc2ccccc21)CCC(N)=O [Compound 7, 1-(2',3'-Dihydroindolin-1-yl)-3-(Ethylthiocarbonyl-L-Leu-L-N-Me-Phe-L-Gln)-E-Propenone] | – | 3820 | 47.9 | 37 | 1300 | – |
| CCCOC(=O)/C=C/[C@H](CCC(N)=O)NC(=O)[C@H](Cc1ccccc1)N(C)C(=O)[C@H](CC(C)C)NC(=O)SC1CCCC1 [Compound 57] | – | 13500 | 50 | 89 | 560 | – |
| CC(C)C[C@H](NC(=O)SC1CCCC1)C(=O)N(C)[C@@H](Cc1ccccc1)C(=O)N[C@H](/C=C1\CCOC1=O)CCC(N)=O [Compound 6, 2-(Cyclopentylthiocarbonyl-L-Leu-L-N-Me-Phe-L-Gln)-E(α-Vinyl-γ-Butyrolactone)] | – | 9500 | 151 | 54 | 2800 | – |
| CCSC(=O)N[C@@H](CC(C)C)C(=O)N(C)[C@@H](Cc1ccccc1)C(=O)N[C@H](/C=C/C(=O)N1CCOC1=O)CCC(N)=O [Compound 17, 1-[2'-Oxazolidon-3'-yl]-3-(Ethylthiocarbonyl-L-Leu-L-N-Me-Phe-L-Gln)-E-Propepone] | – | 750000 | 53 | 106 | 500 | – |
| CCOC(=O)/C=C/[C@H](CCC(N)=O)NC(=O)[C@H](Cc1ccccc1)n1cc[nH]c1=O [Compound 32, Ethyl-3-(L-N-[(1,3-Dihydro-imidazol-2-one)-Phe]-L-Gln)-E-Propenoate] | – | 98 | > 320 | > 2 | 158000 | – |
| CCOC(=O)/C(C)=C/[C@H](CCC(N)=O)NC(=O)[C@H](Cc1ccccc1)N(C)C(=O)[C@H](CC(C)C)NC(=O)SCC(C)C [Compound 45] | – | 2300 | 56.2 | 32 | 1780 | – |
| CCOC(=O)/C=C/C(CCC(N)=O)NC(=O)[C@H](Cc1ccccc1)N1CC[C@H](NC(=O)OCc2ccccc2)C1=O (stereo partly shown) [Compound 53] | – | 242 | > 100 | > 22 | 4500 | – |
| CCOC(=O)/C=C/C(CCC(N)=O)NC(=O)[C@H](Cc1ccccc1)N1CC[C@@H](NC(=O)SC2CCCCC2)C1=O (stereo partly shown) [Compound 54] | – | – | > 100 | > 6 | 17800 | 55 |
| CCOC(=O)/C=C/[C@H](CCC(N)=O)NC(=O)[C@@H]1[C@@H](C)CCN1C(=O)[C@H](CC(C)C)NC(=O)OCc1ccccc1 [Compound 21, Ethyl-3-[CBZ-L-Leu-L-(3S-Methyl)-Pro-L-Gln]-E-Propenoate] | 50 | 256 | > 320 | > 15 | 22000 | – |
| CCOC(=O)/C=C/C(CCC(N)=O)NC(=O)[C@@H]1CCc2ncc(NC(=O)SCC)c(=O)n21 (stereo partly shown) [Compound 52] | – | 31100 | > 100 | > 3 | 32000 | – |
| CCOC(=O)/C=C/[C@H](CCC(N)=O)NC(=O)[C@H](Cc1ccccc1)N(C)C(=O)[C@H](CC(C)C)NC(=O)SCC1CCCCC1 [Compound 40] | – | 12100 | 45 | 141 | 320 | – |
| CCOC(=O)/C=C/C(CCC(N)=O)NC(=O)[C@@H]1CCc2ncc(NC(=O)SC3CCCC3)c(=O)n21 (stereo partly shown) [Compound 51] | – | 43900 | > 100 | > 8 | 12600 | – |
| CCOC(=O)/C=C/C(CCC(N)=O)NC(=O)[C@H](Cc1ccccc1)N1CC[C@@H](NC(=O)OCc2ccccc2)C1=O (stereo partly shown) [Compound 55] | – | – | > 100 | > 2 | 50000 | 20 |
